Test results: patent US20040110775A1, “Cyclin dependent kinase inhibiting purine derivatives” (priority 2001, published 2004)
Values joined by “and” are separate entries in the source; they are usually repeats but may differ in a detail not shown here. Equal values may be shown once. Read-outs that look alike come from different tables or passages of the source.

Tests used:
CDK2 = CDK2 (Homo sapiens, UniProt P24941); assay: Inhibition of CDK2 (CDK inhibition assay); type: biochemical; settings: read-out: IC50 ± SD CDK2
From the text: Assays are available for testing the inhibitory activity of the compounds of interest against a range of CDK/cyclin complexes, including CDK1/cyclin A, CDK1/cyclin B, CDK1/cyclin F, CDK2/cyclin A, CDK2/cyclin E, CDK4/cyclin D, CDK5/35 and CDK6/cyclin D3.
Apart from reference compounds, the compounds listed are accompanied by an NU reference or identification code number.
(§1) By way of example, however, a typical protocol is summarised below.

p34 cdc2(CDK1)/cyclinB = assay: CDK assay: histone H1 phosphorylation with [32P]ATP by cdc2/cyclinB kinase; type: biochemical, starfish (Marthasterias glacialis); settings: read-out: IC50 ± SD CDK1
Experimental: Assays are available for testing the inhibitory activity of the compounds of interest against a range of CDK/cyclin complexes, including CDK1/cyclin A, CDK1/cyclin B, CDK1/cyclin F, CDK2/cyclin A, CDK2/cyclin E, CDK4/cyclin D, CDK5/35 and CDK6/cyclin D3. […]
as §1
Buffer C (containing 6 mM β-glycerophosphate, 30 mM nitrophenyl phosphate, 25 mM MOPS pH 7.0, 5 mM EGTA, 15 mM MgCl2, […] and 0.1 mM sodium orthovanadate) is made up as follows:
Affinity purified p34 cdc2(CDK1)/cyclinB from M-phase starfish (Marthasterias glacialis) in 20% glycerol is stored at −80° C. in chest freezer
Histone H1 (type III-S (Sigma) 4° C.) 5 mg/ml in buffer C.
[^32P]ATP 75 mM: Make up using (multiples of) the following proportions:
DMSO cannot exceed 1% in the assay mixture. Inhibitors are added at 1/10 final assay volume and 10× final strength. DMSO stocks must therefore be diluted to 10× final desired concentration in ≦10% DMSO, ≧90% buffer C.
All reagents (except DMSO stocks) should be kept on ice until assay initiated.
Start reaction in each tube at 30 second intervals b)y adding
5 ml [^32P]ATP vortexing and placing in rack in waterbath at 30° C.
Terminate reaction after 10 min at 30 second intervals in tubes in same order by removing […] reaction mix and spotting onto appropriately labelled filter, allowing to dry for 20-30 seconds and transferring to stirring 1% phosphoric acid.
Blank incubation is performed as above but without histone (add […] buffer C instead) Washing blank is […] ATP added directly to filter.
Wash filters 5-6 times 5 min each
Dry the filters on paper towel
Count in mini scintillation vials with 5 ml scintillant.
NB. The assay can be simplified by making up stock reaction mix as follows:
(1 part cdc2/cyclinB, 16 parts buffer C, 5 parts histone H1)×Number of assay tubes+1 and add […] to each assay tube containing […] buffer C±inhibitor.
It is still necessary, however, to make up assay blank (i.e. without histone) separately.

SMILES | IC50 (CDK2; values in nM) [nM] | IC50 (p34 cdc2(CDK1)/cyclinB; values in nM) | IC50 (CDK2; values given in μM) [nM] | IC50 (p34 cdc2(CDK1)/cyclinB; values given in μM) [nM]
CC(C)CNS(=O)(=O)c1ccc(Nc2nc(OCC3CCCCC3)c3nc[nH]c3n2)cc1 [NU6130, 4-(6Cyclohexylmethoxy-2-ylamino)-N-isobutylbenzenesulfonamide] | 69 ± 13 | 71 ± 9 nM | – | –
O=S(=O)(NC1CC1)c1ccc(Nc2nc(OCC3CCCCC3)c3nc[nH]c3n2)cc1 [NU6131, 4-(6-Cyclohexylmethoxy-9H-purin-2-ylamino)-N-cyclopropylbenzenesulfonamide] | 8 ± 0.3 | 13 ± 5 nM | – | –
O=S(=O)(Nc1cccc(Cl)c1)c1ccc(Nc2nc(OCC3CCCCC3)c3nc[nH]c3n2)cc1 [NU6132, N-(3-Chloro-phenyl)-4-(6-cyclohexylmethoxy-9H-purin-2-ylamino)benzenesulfonamide] | – | – | 5700 | –
CCCNS(=O)(=O)c1ccc(Nc2nc(OCC3CCCCC3)c3nc[nH]c3n2)cc1 [NU6133, 4-(6-Cyclohexylmethoxy-9H-purin-2-ylamino)-N-propylbenzenesulfonamide] | 17 ± 13 | 34 ± 4 nM | – | –
O=S(=O)(NCC1CCCO1)c1ccc(Nc2nc(OCC3CCCCC3)c3nc[nH]c3n2)cc1 (stereo not drawn) [NU6134, 4-(6-Cyclohexylmethoxy-9H-purin-2-ylamino)-N-(tetrahydrofuran-2-ylmethyl)benzenesulfonamide] | 7 ± 3.2 | 7.2 nM and 7.3 nM | – | –
COCCNS(=O)(=O)c1ccc(Nc2nc(OCC3CCCCC3)c3nc[nH]c3n2)cc1 [NU6135, 4-(6-Cyclohexylmethoxy-9H-purin-2-ylamino)-N-(2-methoxyethyl)benzenesulfonamide] | 6 ± 1.5 | 18 ± 4 nM | – | –
CN(C)C(=O)c1ccc(Nc2nc(OCC3CCCCC3)c3nc[nH]c3n2)cc1 [NU6136, 4-(6-Cyclohexylmethoxy-9H-purin-2-ylamino)-N,N-dimethylbenzamide] | – | – | 200 | 600
CNC(=O)c1ccc(Nc2nc(OCC3CCCCC3)c3nc[nH]c3n2)cc1 [NU6139, 4-(6-Cyclohexylmethoxy-9H-purin-2-ylamino)-N-methylbenzamide] | – | – | 300 | 700
CCN(CC)C(=O)c1ccc(Nc2nc(OCC3CCCCC3)c3nc[nH]c3n2)cc1 [NU6140, 4-(6-Cyclohexylmethoxy-9H-purin-2-ylamino)-N,N-diethylbenzamide] | – | – | – | 700
CCCNC(=O)c1ccc(Nc2nc(OCC3CCCCC3)c3nc[nH]c3n2)cc1 [NU6142, 4-(6-Cyclohexylmethoxy-9H-purin-2-ylamino)-N-propylbenzamide] | ~100 | – | – | 420
CCNC(=O)c1ccc(Nc2nc(OCC3CCCCC3)c3nc[nH]c3n2)cc1 [NU6143, 4-(6-Cyclohexylmethoxy-9H-purin-2-ylamino)-N-ethylbenzamide] | > 100 | > 100 nM | – | –
O=S(=O)(NCCO)c1ccc(Nc2nc(OCC3CCCCC3)c3nc[nH]c3n2)cc1 [NU6144, 4-(6-Cyclohexylmethoxy-9H-purin-2-ylamino)-N-(2-hydroxyethyl)benzenesulfonamide] | 4 ± 1.5 | 8 ± 0.2 nM | – | –
O=S(=O)(Nc1nccs1)c1ccc(Nc2nc(OCC3CCCCC3)c3nc[nH]c3n2)cc1 [NU6145, 4-(6-Cyclohexylmethoxy-9H-purin-2-ylamino)-N-thiazol-2-ylbenzenesulfonamide] | 24 | 37 nM | – | –
CC(O)CNS(=O)(=O)c1ccc(Nc2nc(OCC3CCCCC3)c3nc[nH]c3n2)cc1 (stereo not drawn) [NU6146, 4-(6-Cyclohexylmethoxy-9H-purin-2-ylamino)-N-(2-hydroxypropyl)benzenesulfonamide] | 5 ± 1 | 14 ± 7 nM | – | –
O=C(O)c1ccc(Nc2nc(OCC3CCCCC3)c3nc[nH]c3n2)cc1 [NU6147, 4-(6-Cyclohexylmethoxypurin-2-ylamino)benzoic acid] | – | – | – | 240
OCc1cccc(Nc2nc(OCC3CCCCC3)c3nc[nH]c3n2)c1 [NU6151, [3-(6-Cyclohexylmethoxy-9H-purin-2-ylamino)phenyl]methanol] | – | – | – | 300 ± 10
O=S(=O)(Nc1ccccc1)c1ccc(Nc2nc(OCC3CCCCC3)c3nc[nH]c3n2)cc1 [NU6152, 4-(6-Cyclohexylmethoxy-9H-purin-2-ylamino)-N-phenyl-benzenesulfonamide] | – | – | 200 ± 20 | 400 ± 100
O=S(=O)(NCC(O)CO)c1ccc(Nc2nc(OCC3CCCCC3)c3nc[nH]c3n2)cc1 (stereo not drawn) [NU6153, 4-(6-Cyclohexylmethoxy-9H-purin-2-ylamino)-N-(2,3-dihydroxypropyl)benzenesulfonamide] | 5 ± 2 | 7 ± 1 nM | – | –
COc1cc(Nc2nc(OCC3CCCCC3)c3nc[nH]c3n2)ccc1S(N)(=O)=O [NU6161, 4-[6-Cyclohexylmethoxy-9H-purin-2-ylamino]-benzene(3′-methoxy)sulfonamide] | – | 103 ± 4 nM | – | –
